This note sets out measurements from patent publication US20260167620A1, “MULTIFUNCTIONAL COMPOUND CAPABLE OF DEGRADING BTK KINASE, AND COMPOSITION AND USE” (HANGZHOU HEALZEN THERAPEUTICS CO., LTD., priority 2021, published 2026).

The structures appear in SMILES notation. pIC50: −log10 of the molar value.

In one data set the target is T1, BTK (Homo sapiens, UniProt Q06187).
T1 construct: endogenous in cells; host or cells: Mino cells
The data set is described as follows: BTK degradation activity test in Mino cells (Westernblot or Elisa). Type of data set: cell-based. Conditions: 24-72 h incubation. How it is done:
The Mino cell line cells are 0.5˜1 million/well in 6-well plates. The compounds are diluted to different concentrations, added to the plate, and after 24-72 h of incubation, the cells are collected. After the cells were lysed, the total protein concentration in each well was determined with a BCA kit. The amount of BTK is determined using the Westernblot or Elisa method.

In another data set the test system is Mino cells. Put plainly: Inhibitory activity on Mino cell proliferation (MTS). Type of data set: cell-based. To be noted: Homo sapiens, 72 h or 168 h. How it is done: (§1) The anti-tumor efficacy of the compounds was tested by measuring their inhibitory effects on OCI-LY10 and Mino cell proliferation. OCI-LY10 and Mino cells were cultured in RPM-1640 medium containing […] fetal calf serum. OCI-LY10 and Mino cells were digested, inoculated in a 96-well plate at a cell concentration of 10000 cells/well, and incubated overnight at 37° C., 5% CO2. Compounds of different concentrations (1000 nM, 4-fold dilution, 8 points) were added to the 96-well plate and incubated for 72 h or 168 h at 37° C. and […], and then 20 μL of MTS was added to each well. After incubation for 2 h, 25 μl of 10% SDS was added to each well to terminate the reaction. The absorbance at 490 nm and 650 nm were measured with a microplate reader. IC50 was calculated using GraphPad Prism 5.0.

Another data set relates to OCI-LY10 cells. The data set is described as follows: Inhibitory activity on OCI-LY10 cell proliferation (MTS). In kind it is cell-based. Conditions: Homo sapiens, 72 h or 168 h. On the procedure:
as §1

Data set [1] in a line: Liver microsomal metabolic stability, human. In kind it is in vitro ADME. Conditions: human liver microsomes, NADPH, 37° C. On the procedure:
(§2) Under the condition of ice bath, 1 mg of human or Mouse liver microparticles was add to PBS (1 mL) buffer, then NADPH (20 μL) was added, and incubated at 37° C. for 5 min. 10 μL of the compound to be tested was added, then suck several times with a pipette and divide into 3 aliquots of 330 μL; each and then samples were taken at 0, 15, 30, 60 and 120 min respectively. 10 μL of the solution was taken with a pipette each time and added to 490 μL of the solution containing the internal standard compound. The resulting solution was vortexed and then placed on ice, and then sampling at another time point continues. All samples were centrifuged at 10,000 rpm for 10 min, and the supernatant was taken for LC/MS testing. The metabolism of the compound in liver microsomes was calculated based on the peak area.

Data set [2] is described as follows: Liver microsomal metabolic stability, mouse. Type of data set: in vitro ADME. To be noted: mouse liver microsomes, NADPH, 37° C. On the procedure:
as §2

A short description of the next data set: Rat absorption test. Type of data set: in vivo. Conditions: SD rats, intragastric 10 mg/kg, plasma. How it is done: SD Rats were used as experimental animals, and drugs were administered intragastrically at 10 mg/kg (5% DMSO+5% Solutol+90% normal saline). The blood collection time points for intragastric administration were 0.25, 0.5, 1, 2, 4, 6, 8, and 24 h. 0.3 ml of whole blood was taken, and 0.1 ml of plasma was taken after centrifugation and analyzed by LC-MS.

T1 sequence (Q06187 whole entry): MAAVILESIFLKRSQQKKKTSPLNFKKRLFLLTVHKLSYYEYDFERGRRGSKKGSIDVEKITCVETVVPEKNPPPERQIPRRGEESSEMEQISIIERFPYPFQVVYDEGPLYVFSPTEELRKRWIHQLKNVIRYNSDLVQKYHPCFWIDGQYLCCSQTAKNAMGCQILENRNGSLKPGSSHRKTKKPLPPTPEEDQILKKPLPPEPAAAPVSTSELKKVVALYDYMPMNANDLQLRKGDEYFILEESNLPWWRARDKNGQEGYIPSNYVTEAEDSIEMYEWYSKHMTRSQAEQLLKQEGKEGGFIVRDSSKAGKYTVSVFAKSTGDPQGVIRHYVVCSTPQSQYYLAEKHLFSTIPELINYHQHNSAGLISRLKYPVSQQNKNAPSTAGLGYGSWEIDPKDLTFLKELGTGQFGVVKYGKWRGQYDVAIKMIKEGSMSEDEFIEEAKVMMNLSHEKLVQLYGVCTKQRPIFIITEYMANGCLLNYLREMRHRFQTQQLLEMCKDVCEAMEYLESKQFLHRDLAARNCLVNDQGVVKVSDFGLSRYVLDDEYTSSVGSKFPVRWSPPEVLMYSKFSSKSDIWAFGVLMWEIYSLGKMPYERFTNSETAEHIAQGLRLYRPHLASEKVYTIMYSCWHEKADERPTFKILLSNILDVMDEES

As usually defined, the DC50 is the concentration at which degradation of the target reaches its halfway point. As usually defined, the pIC50 is the IC50 on a negative log10 scale, so that one unit is a factor of ten. The low end stands for a high IC50, the high end for a low IC50. `NC(=O)c1nnc(N2CCCCC2)nc1Nc1ccc(C2CCN(CC3CCN(c4ccc(NC5CCC(=O)NC5=O)cn4)C3)CC2)cc1` (centres unmarked) [Compound 014, 5-((4-(1-((1-(5-((2,6-dioxopiperidin-3-yl)amino)pyridin-2-yl)pyrrolidin-3-yl)methyl)piperidin-4-yl)phenyl)amino)-3-(piperidin-1-yl)-1,2,4-triazine-6-carboxamide] yielded a DC50 at BTK of less than 10 nM. For the same molecule, the pIC50 is 8.38 with Mino cells and 9.17 with OCI-LY10 cells.
Consider `CC(=O)N[C@@H]1CCCN(c2nnc(C(N)=O)c(Nc3ccc(C4CCN(CC5CCN(c6ccc7c(c6)C(=O)N(C6CCC(=O)NC6=O)C7=O)C5)CC4)cc3)n2)C1` (stereo partly drawn) [Compound 016, 3-((R)-3-acetamidopiperidin-1-yl)-5-((4-(1-((1-(2-(2,6-dioxopiperidin-3-yl)-1,3-dioxoisoindolin-5-yl)pyrrolidin-3-yl)methyl)piperidin-4-yl)phenyl)amino)-1,2,4-triazine-6-carboxamide], for which, at BTK, the DC50 is less than 10 nM. For the same molecule, the pIC50 in the data set on Mino cells is 8.84; with OCI-LY10 cells, 9.49. Besides, the “Thalf (min) Human” value in data set [1] was 37 min. Moreover, the “Thalf (min) Mouse” value in data set [2] turned out to be 49 min.
With `NC(=O)c1nnc(N2CCOCC2)nc1Nc1ccc(C2CCN(CC3CCN(c4ccc5c(c4)C(=O)N(C4CCC(=O)NC4=O)C5=O)C3)CC2)cc1` (centres unmarked) [Compound 019, 5-((4-(1-((1-(2-(2,6-dioxopiperidin-3-yl)-1,3-dioxoisoindolin-5-yl)pyrrolidin-3-yl)methyl)piperidin-4-yl)phenyl)amino)-3-morpholino-1,2,4-triazine-6-carboxamide], the DC50 on BTK was less than 10 nM. Further, the pIC50 was 8.67 in the data set on Mino cells and 8.96 in the data set with OCI-LY10 cells.
Consider `CC(=O)N[C@@H]1CCCN(c2nnc(C(N)=O)c(Nc3ccc(C4CCN(CC5CCN(c6ccc7c(c6)C(=O)N(C6CCC(=O)NC6=O)C7=O)CC5)CC4)cc3)n2)C1` (stereo partly drawn) [Compound 023, 3-((R)-3-acetamidopiperidin-1-yl)-5-((4-(1-((1-(2-(2,6-dioxopiperidin-3-yl)-1,3-dioxoisoindolin-5-yl)piperidin-4-yl)methyl)piperidin-4-yl)phenyl)amino)-1,2,4-triazine-6-carboxamide], for which the DC50 at BTK is less than 10 nM. The pIC50 was 8.17 in the data set with Mino cells and 9.16 in the data set on OCI-LY10 cells. Further, the “Thalf (min) Human” value in data set [1] was 20 min. In data set [2], the “Thalf (min) Mouse” value stood at 59 min.
`Cc1cc(N2CCC(CN3CCN(c4ccc(Nc5nc(N6CCCCC6)nnc5C(N)=O)cc4F)CC3)CC2)ccc1N1CCC(=O)NC1=O` [Compound 075, 5-((4-(4-((1-(4-(2,4-dioxotetrahydropyrimidin-1(2H)-yl)-3-methylphenyl)piperidin-4-yl)methyl)piperazin-1-yl)-3-fluorophenyl)amino)-3-(piperidin-1-yl)-1,2,4-triazine-6-carboxamide] had a DC50 on BTK of less than 10 nM. The pIC50 in the data set on Mino cells is 8.85; in the data set with OCI-LY10 cells it was 9.29. The DNAUC in “Rat absorption test” is 1125 AUC (h*ng/mL)/dose (mg/kg).
As for `NC(=O)c1nnc(N2CCCCC2)nc1Nc1ccc(N2CCN(CC3CCN(c4ccc(C(=O)NC5CCC(=O)NC5=O)nc4)C3)CC2)c(F)c1` (centres unmarked) [Compound 079, 5-((4-(4-((1-(6-((2,6-dioxopiperidin-3-yl)carbamoyl)pyridin-3-yl)pyrrolidin-3-yl)methyl)piperazin-1-yl)-3-fluorophenyl)amino)-3-(piperidin-1-yl)-1,2,4-triazine-6-carboxamide], the DC50 at BTK is less than 10 nM. The pIC50 in the data set on OCI-LY10 cells is 8.94. The DNAUC in “Rat absorption test” is 6611 AUC (h*ng/mL)/dose (mg/kg).
`NC(=O)c1nnc(N2CCCCC2)nc1Nc1ccc(N2CCN(CC3CCN(c4ncc(-c5ccc(=O)[nH]n5)cc4C(F)(F)F)CC3)CC2)c(F)c1` [Compound 081, 5-((3-fluoro-4-(4-((1-(5-(6-oxo-1,6-dihydropyridazin-3-yl)-3-(trifluoromethyl)pyridin-2-yl)piperidin-4-yl)methyl)piperazin-1-yl)phenyl)amino)-3-(piperidin-1-yl)-1,2,4-triazine-6-carboxamide] returned a DC50 at BTK of less than 10 nM. Also, the DNAUC in “Rat absorption test” is 372 AUC (h*ng/mL)/dose (mg/kg).
`COc1cc(N2CCC(CN3CCN(c4ccc(Nc5nc(N6CCCCC6)nnc5C(N)=O)cc4F)CC3)CC2)ccc1N1CCC(=O)NC1=O` [Compound 082, 5-((4-(4-((1-(4-(2,4-dioxotetrahydropyrimidin-1(2H)-yl)-3-methoxyphenyl)piperidin-4-yl)methyl)piperazin-1-yl)-3-fluorophenyl)amino)-3-(piperidin-1-yl)-1,2,4-triazine-6-carboxamide] came in with a DC50 at BTK of less than 10 nM. Also, the pIC50 in the data set on Mino cells is 8.64; with OCI-LY10 cells it was 9.19.
As to `NC(=O)c1nnc(N2CCCCC2)nc1Nc1ccc(N2CCN(CC3CCN(c4ccc(C(=O)NC5CCC(=O)NC5=O)nc4)CC3)CC2)c(F)c1` (centres unmarked) [Compound 085, 5-((4-(4-((1-(6-((2,6-dioxopiperidin-3-yl)carbamoyl)pyridin-3-yl)piperidin-4-yl)methyl)piperazin-1-yl)-3-fluorophenyl)amino)-3-(piperidin-1-yl)-1,2,4-triazine-6-carboxamide], the DC50 at BTK was less than 10 nM. In the data set on OCI-LY10 cells, the pIC50 was 9.24. In addition, the DNAUC in “Rat absorption test” is recorded as 579 AUC (h*ng/mL)/dose (mg/kg).
As to `CC(=O)N[C@@H]1CCCN(c2nnc(C(N)=O)c(Nc3ccc(N4CCN(CC5CCN(c6ccc(N7CCC(=O)NC7=O)c(C)c6)CC5)CC4)c(F)c3)n2)C1` [Compound 090, (R)-3-(3-acetamidopiperidin-1-yl)-5-((4-(4-((1-(4-(2,4-dioxotetrahydropyrimidin-1(2H)-yl)-3-methylphenyl)piperidin-4-yl)methyl)piperazin-1-yl)-3-fluorophenyl)amino)-1,2,4-triazine-6-carboxamide], at BTK, the DC50 was less than 10 nM. For the same molecule, the pIC50 is 8.71 in the data set on Mino cells and 9.05 in the data set on OCI-LY10 cells. For the same molecule, the “Thalf (min) Human” value in data set [1] worked out at 78 min. Moreover, the “Thalf (min) Mouse” value in data set [2] was 63 min.
For the molecule `CC(=O)N[C@@H]1CCCN(c2nnc(C(N)=O)c(Nc3ccc(N4CCN(CC5CCN(c6ccc(C(=O)NC7CCC(=O)NC7=O)nc6)CC5)CC4)c(F)c3)n2)C1` (stereo partly drawn) [Compound 092, 3-((R)-3-acetamidopiperidin-1-yl)-5-((4-(4-((1-(6-((2,6-dioxopiperidin-3-yl)carbamoyl)pyridin-3-yl)piperidin-4-yl)methyl)piperazin-1-yl)-3-fluorophenyl)amino)-1,2,4-triazine-6-carboxamide], on BTK, the DC50 was less than 10 nM. Moreover, the values for the pIC50 with Mino cells and with OCI-LY10 cells were 8.48 and 9.62, respectively. Moreover, the “Thalf (min) Human” value in data set [1] is 41 min. In addition, in data set [2], the “Thalf (min) Mouse” value is 90 min.
Regarding `NC(=O)c1nnc(N2CCOCC2)nc1Nc1ccc(N2CCN(CC3CCN(c4ccc(C(=O)NC5CCC(=O)NC5=O)nc4)CC3)CC2)c(F)c1` (centres unmarked) [Compound 100, 5-((4-(4-((1-(6-((2,6-dioxopiperidin-3-yl)carbamoyl)pyridin-3-yl)piperidin-4-yl)methyl)piperazin-1-yl)-3-fluorophenyl)amino)-3-morpholino-1,2,4-triazine-6-carboxamide], at BTK, the DC50 was less than 10 nM. Further, the pIC50 with Mino cells is 8.42; in the data set on OCI-LY10 cells, 9.41.
